Read-outs that look alike come from different tables or passages of the source.
How the values were obtained:
[1] = system: Lymphoid leukemia L-1210 solid-type tumor; assay: L1210 Tumor test (solid-type tumor, subcutaneous, inhibition of tumor proliferation by tumor weight); assay type: in vivo, BDF1 male mice; conditions: for ED50 / ED90: Mus musculus; for ED50 / ED90 / ID50 / ID90: L1210 tumor; for ED50: read-out: ID50 (the source's name); for ED90: read-out: ID90 (the source's name)
Experimental: (§1) Lymphoid leukemia L-1210 solid-type tumor was transplanted (1×10^6 cells) in subcutis on the back of BDF1 male mice having the body weight of about 22 g. The mice were killed 10-11 days after the transplantation and the inhibitory effect of tumor proliferation was evaluated by measuring the weight of tumor.
(§2) Each of 5, 10, 20, 50, 100 mg of compounds to be tested is dissolved in a phisiological NaCl solution (5 mg/kg of concentration) and administered by intraperitoneal injection (I.P.) or orally (P.O.). As to the reference the phisiological NaCl solution (5 mg/kg of concentration) was used.

[2] = system: Lymphoid leukemia L-1210 solid-type tumor; assay: as above; assay type: in vivo, BDF1 male mice; conditions: Mus musculus, L1210, sc, I.O. (so in the source)
[3] = Acute toxicity test (LD50); assay type: in vivo, ICR male mice; conditions: for LD50: ICR male mice, I.P.
Text: LD50 (mg/kg) values (ICR male mice, I.P.) of R-(+)-cyclophosphamide, S-(-)-cyclophosphamide and racemic form of cyclophosphamide are shown below.

[4] = system: Lymphocytic leukemia P388 tumor; assay: P388 tumor test (Table 2, headed P328 Tumor test); assay type: in vivo, BDF1 male mice; conditions: for ED50 / ED90: Mus musculus, P388, ip; for ED50: read-out: ID50 (the source's name); for ED90: read-out: ID90 (the source's name)
Experimental: Lymphocytic leukemia P388 liquid-type tumor was transplanted (1×10^6 cells) in abdominal cavity of BDF1 male mice having the body weight of about 20 g. The effect was evaluated by a method of ILS (Increase in life span).
as §1, with “Similarly lymphocytic” for “Lymphoid”, “P388” for “L-1210”, “15 to 16” for “10-11”
as §2

[5] = compared with R-(+)-cyclophosphamide; Cox et al. 1976; cited from earlier work
[6] = system: PC6-Tumor; conditions: compared with R-(+)-cyclophosphamide and racemic form; Cox et al. 1976; cited from earlier work
[7] = mouse, in vivo, ip, read-out: LD50
[8] = P328 Tumor test (so in the source), I.P.

In the case of `O=P1(N(CCCl)CCCl)NCCCO1` (racemic) [Racemic form of cyclophosphamide, cyclophosphamide], the ED50 ([1]; L1210, po, P.O.) is reported as 28 mg/kg, the ED90 ([1]; L1210, po, P.O.) is reported as 90 mg/kg and the ED50 ([2]; read-out: ID50 (the source's name)) is reported as 33 mg/kg. For the same compound, the ED90 ([2]; read-out: ID90 (the source's name)) was 107 mg/kg, the LD50 [3, 7] was 440 mg/kg and the ED50 [4, 8] was 12.9 mg/kg. The ED90 [4, 8] was 39.7 mg/kg.
Compound `O=P1(N(CCCl)CCCl)NCCCO1` (single isomer, unassigned) [R-(+)-cyclophosphamide] has an ED50 ([1]; L1210, ip, I.P.) of 32 mg/kg, an ED90 ([1]; L1210, ip, I.P.) of 104 mg/kg and an ED50 ([1]; L1210, po, P.O.) of 24 mg/kg. For the same compound, the ED90 ([1]; L1210, po, P.O.) was 76 mg/kg, the “anti-tumor effect against L 1210-Tumor” value ([1]; compared with S-(-)-cyclophosphamide and racemic form) was “better anti-tumor effect than those of shown by S-(-)-cyclophosphamide and racemic form of cyclophosphamide” and the acute toxicity ([3]; in mice, compared with S-(-)-cyclophosphamide and racemic form) was “lower acute toxicity (in mice) than those shown by S-(-)-cyclophosphamide and racemic form of cyclophosphamide”. For the same compound, the LD50 [3, 7] was 550 mg/kg, the ED50 [4, 8] was 24.3 mg/kg and the ED90 [4, 8] was 50.8 mg/kg.
`O=P1(N(CCCl)CCCl)NCCCO1` (single isomer, unassigned) [S-(-)-cyclophosphamide] gave an ID50 ([1]; I.P.) of 44 mg/kg, an ID90 ([1]; I.P.) of 143 mg/kg and an ID50 ([1]; P.O.) of 29 mg/kg. The ID90 ([1]; P.O.) was 95 mg/kg, the pharmacological activities [5] was “excellent pharmacological activities as compared with R-(+)-cyclophosphamide” and the LD50 [3] was 330 mg/kg. For the same compound, the “anti-tumor effect against PC6-Tumor” value [6] was “better than those of R-(+)-cyclophosphamide and racemic form of cyclophosphamide”, the ID50 [4, 8] was 14.6 mg/kg and the ID90 [4, 8] was 26.3 mg/kg. For the same compound, the “anti-tumor effect against P388-Tumor” value ([4]; compared with R-(+)-cyclophosphamide and racemic form) was “better than those of R-(+)-cyclophosphamide and racemic form of cyclophosphamide”.
